Source: US10334829B2, “IMiD screening methods IMiD-sensitive cells with mutant CRBN” (THE BROAD INSTITUTE, INC., priority 2013, dated 2019)
“Also recorded” adds a separate entry of the source. Residues, ends and D or L forms follow the SMILES beside them. *: point of attachment. Cbz = O=C(OCc1ccccc1)*

Legend:
[1] = biological target: T1, CSNK1A1 (Homo sapiens, UniProt P48729+Q96SW2); assay: Immunoblot of CSNK1A1 (CK1α) protein in human cell lines; assay type: cell-based; conditions: KG-1 cells, 6 hours
T1 construct: endogenous in cells; host or cells: KG-1
Experimental: Protein lysates were run on Tris-HCl, 1 mm Criterion™ Precast gels (Bio-Rad) or NuPAGE Bis-Tris gels (Novex) gels at a constant voltage. Proteins were transferred onto Immobilon-P transfer membranes (Millipore) at a constant amperage. Before staining with primary antibodies, blots were blocked in 5% non-fat dry milk (Santa Cruz) or BSA in TBST for 30 minutes.
Secondary antibodies were HRP conjugated Bovine anti-Goat (Jackson ImmunoResearch) and HRP conjugated donkey anti-rabbit (GE Healthcare). Supersignal chemi-luminescent substrate was used for detection. For re-probing, blots were stripped in Restore Western Blot Stripping Buffer (Thermo Scientific), activated in methanol, and re-blocked.

[2] = tested on: IKZF1 and IKZF3; assay: ORF-firefly luciferase reporter assay in 293T cells; assay type: cell-based, human; conditions: 1 μM MLN-4924
[3] = tested on: IKZF1 and IKZF3; assay: Immunoblot of IKZF1 and IKZF3 protein in multiple myeloma cells; assay type: cell-based, human
Experimental: The FK2 antibody detects covalently linked ubiquitin.
Protein lysates were run on Tris-HCl, 1 mm Criterion™ Precast gels (Bio-Rad) at a constant voltage. Proteins were transferred onto Imobilon-P transfer membranes (Millipore) at a constant amperage. Before staining, blots were blocked in 5% BSA in TBST for 30 minutes.

[4] = tested on: MM1S cells; assay: CellTiter-Glo luminescent cell viability assay; assay type: cell-based, human; conditions: MM1S (sensitive) versus K562 (insensitive) cells, 6 days
Experimental: FIGS. 2A, 2B-1, 2B-2 and 2C are provided. […] For a biological replicate SILAC labeling for the two conditions was switched.
On the respective days, total cellular ATP content was assessed using CellTiter-Glo® Luminescent Cell Viability Assay (Promega) according to the protocol. Luminescence was assessed by a multimode detector DTX880 (Beckman Coulter).

[5] = biological target: T2, CBR1 (Homo sapiens, UniProt P16152); assay: CBR1 biochemical assays
T2 sequence (P16152 1-277): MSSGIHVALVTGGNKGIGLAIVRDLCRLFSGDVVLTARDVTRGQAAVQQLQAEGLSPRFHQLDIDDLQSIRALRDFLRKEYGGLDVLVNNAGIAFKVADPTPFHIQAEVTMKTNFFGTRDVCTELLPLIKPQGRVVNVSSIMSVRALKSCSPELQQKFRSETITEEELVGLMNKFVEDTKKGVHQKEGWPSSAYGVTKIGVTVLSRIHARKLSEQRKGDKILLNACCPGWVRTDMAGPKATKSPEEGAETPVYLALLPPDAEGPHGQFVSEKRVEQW

[6] = biological target: T3, RAB28 (Homo sapiens, UniProt P51157); assay: ORF-firefly luciferase reporter assay in 293T cells; assay type: cell-based; conditions: 1 μM lenalidomide, 24 hours
T3 construct: expressed in transfected cells; host or cells: 293T
Experimental: The cDNAs of candidate genes, fused to firefly luciferase (FFluc), were expressed in 293T cells.
The luciferase reporter plasmid CMV-IRES-RenillaLUC-IRES-Gateway-FireflyLUC (11) was a kind gift from William G. Kaelin (Dana-Farber Cancer Institute). Cloning of cDNAs was performed using Gateway LR reaction (invitrogen). […] After an additional 24 hours, dual luciferase assays were performed using the Dual-Glo Luciferase Assay System (Promega) according to the manufacturer's protocol.

[7] = tested on: IRF4; assay: IRF4 protein and mRNA levels in MM1S cells; assay type: cell-based, human
Excerpt: FIG. 14E is a graph showing IRF4 RNA expression levels after IKZF3 knockdown.

[8] = tested on: CSNK1A1; assay: RQ-PCR of CSNK1A1 mRNA in human cells; assay type: cell-based
Experimental: Relative expression levels were calculated using the ΔΔCT method.

[9] = tested on: CSNK1A1; assay: Immunoblot of CSNK1A1 in murine Baf3 and primary murine AML cells, with or without expressed CRBN variants; assay type: cell-based, mouse
Experimental: CSNK1A1 protein levels were assessed by immunoblot. […] Non-conserved amino acids are indicated by red bars.
Variants of human and mouse CRBN were cloned into a modified pRSF91 backbone to generate SFFV-CRBN-IRES-GFP-T2A-Puro retroviral constructs. 200,000 Ba/F3 cells were infected with ecotropic retrovirus in the presence of 2 μg/ml polybrene. After 24 hours, 1 μg/ml puromycin (Gibco) was added and cells were selected for 3-4 days. […] Protein lysates were harvested and immunoblotted for CK1α as described above.

[10] = tested on: IKZF3; assay: Immunoblot of IKZF3 in T cells isolated from mCRBN^I391V knock-in or wild type mice; assay type: cell-based, mouse; conditions: 0, 1 or 10 μM
Excerpt: IKZF3 protein levels was detected by immunoblot (IB). Actin was included as a protein loading control.

T1 sequence (P48729 whole entry): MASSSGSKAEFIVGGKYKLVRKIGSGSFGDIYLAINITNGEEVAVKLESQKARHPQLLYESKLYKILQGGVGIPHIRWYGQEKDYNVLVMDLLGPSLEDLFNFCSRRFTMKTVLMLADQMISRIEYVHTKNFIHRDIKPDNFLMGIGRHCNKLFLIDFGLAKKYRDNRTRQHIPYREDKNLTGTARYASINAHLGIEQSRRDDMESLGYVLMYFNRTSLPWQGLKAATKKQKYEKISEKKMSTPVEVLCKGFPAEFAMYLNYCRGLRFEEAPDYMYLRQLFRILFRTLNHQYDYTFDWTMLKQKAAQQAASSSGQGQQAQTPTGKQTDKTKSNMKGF
T1 sequence (Q96SW2 whole entry): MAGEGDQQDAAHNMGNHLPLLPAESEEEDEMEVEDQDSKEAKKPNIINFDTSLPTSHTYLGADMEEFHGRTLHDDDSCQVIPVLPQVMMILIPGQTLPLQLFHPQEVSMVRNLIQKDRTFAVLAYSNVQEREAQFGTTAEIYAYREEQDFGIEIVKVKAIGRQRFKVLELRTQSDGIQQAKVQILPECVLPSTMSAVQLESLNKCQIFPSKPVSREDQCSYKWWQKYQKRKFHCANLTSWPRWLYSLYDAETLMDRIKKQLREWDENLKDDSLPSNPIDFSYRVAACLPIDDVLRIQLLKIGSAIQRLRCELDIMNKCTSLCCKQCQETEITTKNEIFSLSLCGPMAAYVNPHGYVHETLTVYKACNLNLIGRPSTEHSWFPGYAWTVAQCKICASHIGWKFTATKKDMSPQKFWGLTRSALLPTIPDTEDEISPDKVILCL
T1 sequence (Q16531 whole entry partner): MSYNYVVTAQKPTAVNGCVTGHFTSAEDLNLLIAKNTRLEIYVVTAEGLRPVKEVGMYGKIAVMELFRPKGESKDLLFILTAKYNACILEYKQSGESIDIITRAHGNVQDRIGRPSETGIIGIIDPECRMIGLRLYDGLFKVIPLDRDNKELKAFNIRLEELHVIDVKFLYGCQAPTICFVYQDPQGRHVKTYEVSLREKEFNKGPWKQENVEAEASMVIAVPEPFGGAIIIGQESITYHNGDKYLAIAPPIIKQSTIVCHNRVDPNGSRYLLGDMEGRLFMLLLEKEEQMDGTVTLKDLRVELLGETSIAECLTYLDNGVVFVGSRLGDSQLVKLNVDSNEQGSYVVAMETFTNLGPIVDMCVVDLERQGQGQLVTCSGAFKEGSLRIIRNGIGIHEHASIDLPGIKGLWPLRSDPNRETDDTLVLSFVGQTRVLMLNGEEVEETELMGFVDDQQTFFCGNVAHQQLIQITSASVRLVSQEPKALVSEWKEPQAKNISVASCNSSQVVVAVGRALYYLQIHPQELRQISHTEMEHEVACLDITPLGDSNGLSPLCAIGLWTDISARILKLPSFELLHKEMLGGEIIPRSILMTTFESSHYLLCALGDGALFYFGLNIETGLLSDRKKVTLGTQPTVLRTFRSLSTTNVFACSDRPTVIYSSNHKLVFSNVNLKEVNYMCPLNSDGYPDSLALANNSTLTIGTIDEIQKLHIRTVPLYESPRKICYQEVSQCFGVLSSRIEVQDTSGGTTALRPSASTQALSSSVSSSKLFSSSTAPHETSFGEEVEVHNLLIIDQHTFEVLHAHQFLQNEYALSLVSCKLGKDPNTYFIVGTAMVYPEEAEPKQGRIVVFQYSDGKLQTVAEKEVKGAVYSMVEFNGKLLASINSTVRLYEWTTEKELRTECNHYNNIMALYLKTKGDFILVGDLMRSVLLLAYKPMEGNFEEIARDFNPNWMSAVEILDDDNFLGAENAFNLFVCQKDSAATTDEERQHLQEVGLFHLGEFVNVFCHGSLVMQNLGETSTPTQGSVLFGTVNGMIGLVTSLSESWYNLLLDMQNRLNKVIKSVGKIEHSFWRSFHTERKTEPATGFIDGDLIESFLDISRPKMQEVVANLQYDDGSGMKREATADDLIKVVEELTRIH

For CC(C)C[C@@H](C=O)NC(=O)[C@H](CC(C)C)NC(=O)[C@H](CC(C)C)NC(=O)OCc1ccccc1 [MG132] (Cbz-Leu-Leu-Leu-aldehyde), the “Effect on lenalidomide-induced decrease in CSNK1A1 protein levels” value [1] was “abrogated”.
In the case of NS(=O)(=O)OC[C@@H]1C[C@@H](n2ccc3c(N[C@H]4CCc5ccccc54)ncnc32)C[C@@H]1O [MLN-4924], the “Effect on lenalidomide-induced decrease of FFluc-fused IKZF3” value [2] is reported as “prevented the lenalidomide-induced decrease”, the “Effect on lenalidomide-induced decrease of endogenous IKZF1 and IKZF3” value ([3]; MM cells, 1 μM MLN-4924) is reported as “prevented the lenalidomide-induced decrease” and the “Effect on lenalidomide-induced decrease in CSNK1A1 protein levels” value [1] is reported as “abrogated”.
CCCCNC(=O)CCCNc1cccc2c1CN(C1CCC(=O)NC1=O)C2=O (stereo not drawn) [lenalidomide derivative, N-butyl-4-((2-(2,6-dioxopiperidin-3-yl)-1-oxoisoindolin-4-yl)amino)butanamide] was tested, and the “Biological activity / growth inhibition compared with lenalidomide” value [4] was “retained the biological activity of lenalidomide, including selective growth inhibition of multiple myeloma cells”.
Nc1cccc2c1CN(C1CCC(=O)NC1=O)C2=O (stereo not drawn) [lenalidomide] was tested, and the “Inhibition of CBR1” value [5] was “did not interact with CBR1 in direct binding assays or inhibit CBR1”, the “Luciferase level of FFluc fused to RAB28” value [6] was “not altered” and the “Degradation of IKZF1 and IKZF3 with CRBN mutant that does not bind lenalidomide” value [3] was “abrogated degradation of IKZF1 and IKZF3”. The “IRF4 levels in proteomic analysis” value ([7]; 12 hours) was “only slightly decreased”, the “IRF4 mRNA and protein” value ([7]; 24 hours and longer) was “decreased expression of IRF4; also recorded: significant decrease of IRF4 mRNA and protein” and the “CSNK1A1 mRNA / RNA expression” value [8] was “No significant change; also recorded: did not alter CSNK1A1 mRNA levels”. The “CSNK1A1 degradation in Baf3 cells expressing mCRBN^I391V” value [9] was “conferred sensitivity to lenalidomide-induced degradation of CSNK1A1”, the “CSNK1A1 protein levels in murine cells over-expressing human CRBN” value [9] was “sufficient to confer lenalidomide sensitivity to CSNK1A1; also recorded: reduced CSNK1A1 levels; also recorded: resulted in a decrease of CSNK1A1 protein levels” and the “CSNK1A1 protein levels in murine Baf3 cells or primary murine (MLL-AF9) leukemia cells” value ([9]; unmodified cells, 24 hours) was “No change; also recorded: did not decrease Csnk1a1 protein levels”. The “IKZF3 degradation in T cells from wild type mice” value [10] was “No IKZF3 degradation was observed”.
